Key:
Type in all cases: cell-based
mouse SMO^WT = biological target: T1, mouse SMO^WT (Mus musculus, UniProt P56726); assay: Mouse assay: Gli1 qPCR in MEF cells stably expressing mouse SMO WT; settings: mSHh-treated, 24 hours; for IC50: Gli1 inhibition by qPCR, read-out: Mouse WT pIC50 (converted); for Mouse WT % Inh: percentage Gli1 inhibition
T1 construct: expressed in transfected cells
Summary of the method: (§1)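 MEFs stably expressing the SMO variant pre-treated with compound 1 h, then stimulated with mSHh and incubated 24 h at 37 °C. Gli1 mRNA quantified by one-step TaqMan qPCR with Gusb reference, four replicates per concentration; expressed as % Gli1 inhibition relative to mSHh-treated controls.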

mouse SMO^D473H = biological target: T2, mouse SMO^D473H (Mus musculus, UniProt P56726, D477H); assay: Mouse assay: Gli1 qPCR in MEF cells stably expressing mouse SMO D473H; settings: mSHh-treated, 24 hours; for IC50: Gli1 inhibition by qPCR, read-out: Mouse D473H pIC50 (converted); for Mouse D473H % Inh: percentage Gli1 inhibition
T2 construct: expressed in transfected cells
T2 sequence (P56726 33-793 D477H): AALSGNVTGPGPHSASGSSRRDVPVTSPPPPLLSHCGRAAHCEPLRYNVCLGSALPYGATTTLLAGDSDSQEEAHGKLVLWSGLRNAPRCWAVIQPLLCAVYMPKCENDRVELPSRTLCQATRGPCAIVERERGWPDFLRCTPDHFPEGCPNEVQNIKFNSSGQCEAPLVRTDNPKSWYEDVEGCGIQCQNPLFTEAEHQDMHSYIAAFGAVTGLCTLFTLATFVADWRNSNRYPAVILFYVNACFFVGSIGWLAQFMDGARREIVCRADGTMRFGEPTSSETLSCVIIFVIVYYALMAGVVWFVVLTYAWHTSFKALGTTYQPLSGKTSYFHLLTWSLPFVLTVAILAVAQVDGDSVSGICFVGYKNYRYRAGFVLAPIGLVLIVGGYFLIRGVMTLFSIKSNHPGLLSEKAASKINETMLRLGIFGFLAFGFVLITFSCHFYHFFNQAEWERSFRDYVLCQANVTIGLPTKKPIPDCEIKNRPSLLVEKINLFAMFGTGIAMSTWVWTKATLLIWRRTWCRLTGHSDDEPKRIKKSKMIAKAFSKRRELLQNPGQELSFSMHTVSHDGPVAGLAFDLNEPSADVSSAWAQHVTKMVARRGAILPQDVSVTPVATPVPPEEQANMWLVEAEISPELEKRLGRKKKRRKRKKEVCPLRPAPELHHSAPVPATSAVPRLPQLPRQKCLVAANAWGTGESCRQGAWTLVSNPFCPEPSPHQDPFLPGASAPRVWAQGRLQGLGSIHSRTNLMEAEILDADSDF
Summary of the method: as §1

mouse SMO^W535L = biological target: T3, mouse SMO^W535L (Mus musculus, UniProt P56726, W539L); assay: Mouse assay: Gli1 qPCR in MEF cells stably expressing mouse SMO W535L; settings: mSHh-treated, 24 hours; for IC50: Gli1 inhibition by qPCR, read-out: Mouse W535L pIC50 (converted); for Mouse W535L % Inh: percentage Gli1 inhibition
T3 construct: expressed in transfected cells
T3 sequence (P56726 33-793 W539L): as the sequence (P56726 33-793 D477H) above, with H445D, W507L counted along it
Summary of the method: as §1

human SMO D473H = biological target: T4, human SMO D473H (Homo sapiens, UniProt Q99835, D473H); assay: Human assay: Gli1 qPCR in MEF SMO-/- cells BacMam-transduced with hSMO D473H variant; settings: mSHh-treated, 24 hours; for IC50: Gli1 inhibition by qPCR, read-out: Human D473H pIC50 (converted); for Human D473H % Inh: percentage Gli1 inhibition
T4 construct: expressed in transfected cells; host or cells: SMO knock-out mouse embryonic fibroblasts (MEF SMO-/-), BacMam transduction
T4 sequence (Q99835 28-787 D473H): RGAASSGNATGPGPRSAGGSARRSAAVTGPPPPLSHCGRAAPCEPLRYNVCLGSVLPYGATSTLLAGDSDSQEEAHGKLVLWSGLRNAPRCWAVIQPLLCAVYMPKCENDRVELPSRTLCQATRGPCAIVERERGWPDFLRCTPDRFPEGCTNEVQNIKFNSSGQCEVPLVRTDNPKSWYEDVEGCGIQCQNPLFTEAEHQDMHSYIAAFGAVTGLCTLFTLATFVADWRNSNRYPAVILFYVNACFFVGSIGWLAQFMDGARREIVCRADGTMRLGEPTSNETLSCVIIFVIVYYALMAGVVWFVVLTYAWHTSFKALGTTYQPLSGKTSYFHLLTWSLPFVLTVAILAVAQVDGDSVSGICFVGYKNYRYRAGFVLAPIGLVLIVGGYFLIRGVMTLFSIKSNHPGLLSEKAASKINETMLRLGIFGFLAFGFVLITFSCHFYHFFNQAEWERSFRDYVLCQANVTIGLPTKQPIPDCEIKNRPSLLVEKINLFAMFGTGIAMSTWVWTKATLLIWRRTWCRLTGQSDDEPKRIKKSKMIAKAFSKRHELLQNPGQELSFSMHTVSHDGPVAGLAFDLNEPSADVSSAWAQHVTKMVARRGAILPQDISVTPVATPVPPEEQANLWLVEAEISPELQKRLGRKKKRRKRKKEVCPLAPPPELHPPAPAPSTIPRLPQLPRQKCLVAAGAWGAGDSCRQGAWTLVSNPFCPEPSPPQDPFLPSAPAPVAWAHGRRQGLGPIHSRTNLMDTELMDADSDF
Method: Cell culture. All materials were purchased from Sigma-Aldrich, unless otherwise stated.
(§2) BacMam transduction and compound treatment. MEF^SMO−/− cells were transduced with BacMam virus (MOI 1:10 in the presence of 4.2 mM valproic acid) containing either the hSMO WT or desired receptor variant sequence. Transduced cells were seeded at 6000 cells per well in a Poly-D-Lysine coated 384-well plate (Greiner) before the spent culture medium was removed on the following day and replaced with assay medium (OptiMEM (Gibco) supplemented with 50 U/mL penicillin and 5 mg/mL streptomycin (supplied as a mixture), 0.1 mMMEM Non-Essential Amino Acids (supplied as 100× solution, ThermoFisher), 1 mM sodium pyruvate and 10 mM HEPES) containing test compounds at 2.5× final assay concentrations.
(§3) Cell lysis and one-step qPCR. The Cells-to-CT™ 1-Step TaqMan® Kit was used in conjunction with TaqMan primer-probe assays for the detection of Gill (FAM, Mm00494654_m1) and Gusb (VIC, Mm01197698_m1) genes (all purchased from Life Technologies). Following 24 hours cell treatment, spent medium was removed and cells were washed with PBS before the application of lysis and stop solution as per manufacturer's instructions. The qPCR reactions were run in a 384-well PCR plate using master mix prepared according to manufacturer's instructions and cell lysate samples from treatment wells. Real-time PCR amplification was detected using the Bio-Rad CFX384 Touch PCR system. Four experimental replicates (two cell replicates and two qPCR replicates) were performed for each compound concentration tested. Real-time data were analysed using the CFX Maestro software (Bio-Rad) and obtained expression values were converted to percentage Gill inhibition by normalising to the average Gill expression of mSHh-treated control samples

human SMO W535L = biological target: T5, human SMO W535L (Homo sapiens, UniProt Q99835, W535L); assay: Human assay: Gli1 qPCR in MEF SMO-/- cells BacMam-transduced with hSMO W535L variant; settings: mSHh-treated, 24 hours; for IC50: Gli1 inhibition by qPCR, read-out: Human W535L pIC50 (converted); for Human W535L % Inh: percentage Gli1 inhibition
T5 construct: expressed in transfected cells; host or cells: SMO knock-out mouse embryonic fibroblasts (MEF SMO-/-), BacMam transduction
T5 sequence (Q99835 28-787 W535L): as the sequence (Q99835 28-787 D473H) above, with H446D, W508L counted along it
Method: (§4) Cell culture. All materials were purchased from Sigma-Aldrich, unless otherwise stated. SMO knock-out mouse embryonic fibroblasts (MEF^SMO−/−) were maintained in Dulbecco's modified Eagle's medium (DMEM)/high-glucose medium supplemented with 10% foetal bovine serum (FBS, Invitrogen), 50 U/mL penicillin and 5 mg/mL streptomycin (supplied as a mixture), 0.1 mMMEM Non-Essential Amino Acids (supplied as 100× solution, ThermoFisher) and 1 mM sodium pyruvate at 37° C. in a humidified 95% air/5% CO2 atmosphere.
as §2, with “concentrations. After 1 hour incubation, cells were treated with assay medium containing mSHh prepared at 2.5× of final assay concentrations specified in the text and incubated for a further 24 hours at 37° C. in a humidified 95% air/5% […] atmosphere prior to qPCR analysis.” for “concentrations.”
as §3

hSMO WT = biological target: T6, hSMO WT (Homo sapiens, UniProt Q99835); assay: Human assay: Gli1 qPCR in MEF SMO-/- cells BacMam-transduced with hSMO WT; settings: mSHh-treated, 24 hours; for IC50: Gli1 inhibition by qPCR, read-out: Human WT pIC50 (converted); for Human WT % Inh: percentage Gli1 inhibition
T6 construct: expressed in transfected cells; host or cells: SMO knock-out mouse embryonic fibroblasts (MEF SMO-/-), BacMam transduction
T6 sequence (Q99835 28-787): as the sequence (Q99835 28-787 D473H) above, with H446D counted along it
Method: as §4
as §2, with “concentrations. After 1 hour incubation, cells were treated with assay medium containing mSHh prepared at 2.5× of final assay concentrations specified in the text and incubated for a further 24 hours at 37° C. in a humidified 95% air/5% […] atmosphere prior to qPCR analysis.” for “concentrations.”
as §3

T1 sequence (P56726 33-793): as the sequence (P56726 33-793 D477H) above, with H445D counted along it

IC50 (mouse SMO^WT) [µM] | Mouse WT % Inh (mouse SMO^WT) [%] | IC50 (mouse SMO^D473H) [µM] | Mouse D473H % Inh (mouse SMO^D473H) [%] | IC50 (mouse SMO^W535L) [µM] | Mouse W535L % Inh (mouse SMO^W535L) [%] | IC50 (human SMO D473H) [µM] | Human D473H % Inh (human SMO D473H) [%] | IC50 (human SMO W535L) [µM] | Human W535L % Inh (human SMO W535L) [%] | IC50 (hSMO WT) [µM] | Human WT % Inh (hSMO WT) [%] | SMILES
0.002 | 98.8 | 0.00794 | 98.1 | 0.0631 | 82.7 |  |  |  |  |  |  | Cc1oc(-c2ccc(NC(=O)c3ccc(Cl)c(CN4CCS(=O)(=O)CC4)c3)cn2)nc1C1CC1 [Example 5-2, 4-Chloro-N-[6-(4-cyclopropyl-5-methyl-1,3-oxazol-2-yl)pyridin-3-yl]-3-[(1,1-dioxo-1,4-thiazinan-4-yl)methyl]benzamide]
0.00794 | 97.3 | 0.126 | 97.0 | 0.251 | 66.4 | 0.794 | 107.7 | 0.0398 | 85.9 |  |  | Cn1nc(-c2ccc(NC(=O)c3cccc(CN4CCS(=O)(=O)CC4)c3)cn2)cc1C1CC1 [Example 5-4, N-[6-(5-Cyclopropyl-1-methylpyrazol-3-yl)pyridin-3-yl]-3-[(1,1-dioxo-1,4-thiazinan-4-yl)methyl]benzamide]
0.0316 | 97.7 | 0.1 | 93.2 | 0.631 | 61.1 |  |  |  |  |  |  | Cn1nc(-c2ccc(NC(=O)c3cccc(CN4CCS(=O)(=O)CC4)c3)nc2)cc1C1CC1 [Example 5-5, N-[5-(5-cyclopropyl-1-methylpyrazol-3-yl)pyridin-2-yl]-3-[(1,1-dioxo-1,4-thiazinan-4-yl)methyl]benzamide]

The remaining lines, values behind:

SMILES | IC50 (mouse SMO^WT) [µM] | Mouse WT % Inh (mouse SMO^WT) [%] | IC50 (mouse SMO^D473H) [µM] | Mouse D473H % Inh (mouse SMO^D473H) [%] | IC50 (mouse SMO^W535L) [µM] | Mouse W535L % Inh (mouse SMO^W535L) [%] | IC50 (human SMO D473H) [µM] | Human D473H % Inh (human SMO D473H) [%] | IC50 (human SMO W535L) [µM] | Human W535L % Inh (human SMO W535L) [%] | IC50 (hSMO WT) [µM] | Human WT % Inh (hSMO WT) [%]
CC1CN(Cc2cccc(C(=O)Nc3ccc(-c4nc(C5CC5)n[nH]4)cc3)c2)CCS1(=O)=O (stereo not shown) [Example 1-2, N-[4-(3-Cyclopropyl-1H-1,2,4-triazol-5-yl)phenyl]-3-[(2-methyl-1,1-dioxo-1,4-thiazinan-4-yl)methyl]benzamide] | 0.0158 | 97.3 | 0.126 | 95.6 | 0.2 | 63.3 | 0.2 | 85 | 0.02 | 78.2 |  | 
O=C(Nc1ccc(-c2nc(C3CC3)n[nH]2)cc1)c1cc(F)cc(CN2CCS(=O)(=O)CC2)c1 [Example 2-2, N-[4-(5-Cyclopropyl-1H-1,2,4-triazol-3-yl)phenyl]-3-[(1,1-dioxo-1,4-thiazinan-4-yl)methyl]-5-fluorobenzamide] | 0.01 | 95.8 | 0.126 | 91.3 | 0.126 | 67.2 | 0.794 | 73.6 | 0.00794 | 79.1 |  | 
O=C(Nc1ccc(-c2nc(C3CC3)n[nH]2)cc1)c1cc(Cl)cc(CN2CCS(=O)(=O)CC2)c1 [Example 2-4, 3-Chloro-N-[4-(5-cyclopropyl-1H-1,2,4-triazol-3-yl)phenyl]-5-[(1,1-dioxo-1,4-thiazinan-4-yl)methyl]benzamide] | 0.00501 | 95.4 | 0.0398 | 95.4 | 0.0398 | 60.2 | 0.631 | 76.5 | 0.00501 | 87.8 |  | 
O=C(Nc1ccc(-c2nc(C3CC3)n[nH]2)cc1)c1cccc(CN2CCS(=O)(=O)CC2)c1 [Example 3-3, N-[4-(3-Cyclopropyl-1H-1,2,4-triazol-5-yl)phenyl]-3-[(1,1-dioxo-1,4-thiazinan-4-yl)methyl]benzamide] | 0.0158 | 96.6 | 0.158 | 89.9 | 0.158 | 61.9 | 1.26 | 77.2 | 0.1 | 88.4 | 0.0316 | 85.9
O=C(Nc1ccc(-c2nc(C3CCCC3)n[nH]2)cc1)c1cccc(CN2CCS(=O)(=O)CC2)c1 [Example 3-5, N-[4-(3-Cyclopentyl-1H-1,2,4-triazol-5-yl)phenyl]-3-[(1,1-dioxo-1,4-thiazinan-4-yl)methyl]benzamide] | 0.01 | 96.6 | 0.0501 | 96.7 | 0.0158 | 42.2 | 0.251 | 88.3 | 0.00251 | 75.4 | 0.002 | 83.4
O=C(Nc1ccc(-c2nc(Cc3ccc(Br)cc3)n[nH]2)cc1)c1cccc(CN2CCS(=O)(=O)CC2)c1 [Example 3-24, N-[4-[3-[(4-bromophenyl)methy]-1H-1,2,4-triazol-5-yl]phenyl]-3-[(1,1-dioxo-1,4-thiazinan-4-yl)methyl]benzamide] | 0.00398 | 98.8 | 0.0501 | 98.5 | 0.0398 | 72.5 | 0.0251 | 104 | 0.0251 | 98.5 | 0.00631 | 94
Cc1oc(-c2ccc(NC(=O)c3cccc(CN4CCS(=O)(=O)CC4)c3)cc2)nc1C1CC1 [Example 4-2, N-[4-(4-Cyclopropyl-5-methyl-1,3-oxazol-2-yl)phenyl]-3-[(1,1-dioxo-1,4-thiazinan-4-yl)methyl]benzamide] | 0.000631 | 97.5 | 0.00251 | 98.4 | 0.0158 | 75.3 | 0.0316 | 104.2 | 0.0251 | 104.6 | 0.000501 | 97.8
Cc1oc(-c2ccc(NC(=O)c3ccc(F)c(CN4CCS(=O)(=O)CC4)c3)cc2)nc1C1CC1 [Example 4-3, N-[4-(4-Cyclopropyl-5-methyl-1,3-oxazol-2-yl)phenyl]-3-[(1,1-dioxo-1,4-thiazinan-4-yl)methyl]-4-fluorobenzamide] | 0.0002 | 97.1 | 0.002 | 97.4 | 0.01 | 71.9 | 0.0251 | 103.2 | 0.0126 | 95.6 | 0.000316 | 93.6
CS(=O)(=O)c1ccc(C(=O)Nc2ccc(Cl)c(-c3ccccn3)c2)c(Cl)c1 [Vismodegib, reference compound] |  |  |  |  |  |  |  | 45.4 |  | 92.6 |  | 100.1

From patent publication US20250136559A1, “SMO MODULATOR COMPOUNDS” (OMASS THERAPEUTICS LIMITED, priority 2022, published 2025)
